In ChEMBL document CHEMBL5465560, “Selectivity Literature for EUbOPEN Chemogenomic Library” (2024):

What was measured:
[1] = target: T1, Mitotic checkpoint serine/threonine-protein kinase BUB1 (Homo sapiens, UniProt O43683); test: Selectivity interaction (TR-FRET kinase assay ) EUB0001548a BUB1
Adenosine receptor A2a = Adenosine receptor A2a (Homo sapiens, UniProt P29274); test: Selectivity interaction (Eurofins-Panlabs Screen) EUB0001548a ADORA2A; conditions: at 10 µM
[2] = target: Sodium/nucleoside cotransporter 1 (Homo sapiens, UniProt O00337); test: Selectivity interaction (Eurofins-Panlabs Screen (enzymatic assay)) EUB0001548a SLC28A1
[3] = target: T2, Dual specificity tyrosine-phosphorylation-regulated kinase 1B (Homo sapiens, UniProt Q9Y463); test: Selectivity interaction (Kinome Scan (DiscoverX, competition binding assay)) EUB0001548a DYRK1B
[4] = target: Sodium channel protein type 2 subunit alpha (Homo sapiens) (UniProt Q99250); test: Selectivity interaction (Eurofins-Panlabs Screen) EUB0001548a SCN2A; conditions: at 10 µM
[5] = target: T2, Dual specificity tyrosine-phosphorylation-regulated kinase 1B; test: Selectivity interaction (KinomeScan (DiscoverX)) EUB0001548a DYRK1B; conditions: at 1 µM
[6] = target: 3',5'-cyclic-AMP phosphodiesterase 4A (Homo sapiens, UniProt P27815); test: Selectivity interaction (Eurofins-Panlabs Screen) EUB0001548a PDE4A; conditions: at 10 µM
[7] = target: T1, Mitotic checkpoint serine/threonine-protein kinase BUB1; test: Selectivity interaction (KinomeScan (DiscoverX, competition binding assay)) EUB0001548a BUB1
[8] = target: Serine/threonine-protein kinase 10 (Homo sapiens) (UniProt O94804); test: Selectivity interaction (KinomeScan (DiscoverX)) EUB0001548a STK10; conditions: at 1 µM
Serine/threonine-protein kinase 10 (Homo sapiens), sequence (O94804 whole entry, looked up): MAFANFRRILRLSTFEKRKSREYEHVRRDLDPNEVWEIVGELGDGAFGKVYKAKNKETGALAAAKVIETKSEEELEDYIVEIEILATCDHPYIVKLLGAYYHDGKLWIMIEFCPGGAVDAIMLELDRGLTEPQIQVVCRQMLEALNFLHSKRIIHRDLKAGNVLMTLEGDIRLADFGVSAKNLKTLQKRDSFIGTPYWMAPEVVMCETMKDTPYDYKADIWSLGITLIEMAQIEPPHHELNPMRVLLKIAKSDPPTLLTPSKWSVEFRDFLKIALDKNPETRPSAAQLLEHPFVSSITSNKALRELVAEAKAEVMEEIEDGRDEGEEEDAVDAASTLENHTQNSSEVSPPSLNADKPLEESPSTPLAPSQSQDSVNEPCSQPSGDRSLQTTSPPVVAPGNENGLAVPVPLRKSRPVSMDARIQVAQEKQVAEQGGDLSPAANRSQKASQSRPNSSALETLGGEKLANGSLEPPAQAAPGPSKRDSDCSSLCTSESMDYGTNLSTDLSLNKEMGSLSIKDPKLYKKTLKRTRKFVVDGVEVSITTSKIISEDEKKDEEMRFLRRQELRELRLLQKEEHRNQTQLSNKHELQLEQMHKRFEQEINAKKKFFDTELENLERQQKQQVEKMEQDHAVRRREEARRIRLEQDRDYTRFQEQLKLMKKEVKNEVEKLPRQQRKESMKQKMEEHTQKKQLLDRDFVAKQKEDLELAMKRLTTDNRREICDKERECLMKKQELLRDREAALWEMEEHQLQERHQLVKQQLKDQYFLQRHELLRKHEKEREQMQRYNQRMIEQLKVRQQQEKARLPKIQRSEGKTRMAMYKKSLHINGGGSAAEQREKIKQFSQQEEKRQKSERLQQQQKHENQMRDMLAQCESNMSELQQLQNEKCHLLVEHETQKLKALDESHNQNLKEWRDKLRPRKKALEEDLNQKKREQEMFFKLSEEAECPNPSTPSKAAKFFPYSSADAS

[9] = target: Prostaglandin G/H synthase 1 (Homo sapiens) (UniProt P23219); test: Selectivity interaction (Eurofins-Panlabs Screen) EUB0001548a PTGS1; conditions: at 10 µM
[10] = target: T3, Gamma-aminobutyric acid receptor subunit alpha-1 (Homo sapiens) (UniProt P14867); test: Selectivity interaction (Eurofins-Panlabs Screen) EUB0001548a GABRA1; conditions: at 10 µM
T3 sequence (whole entry): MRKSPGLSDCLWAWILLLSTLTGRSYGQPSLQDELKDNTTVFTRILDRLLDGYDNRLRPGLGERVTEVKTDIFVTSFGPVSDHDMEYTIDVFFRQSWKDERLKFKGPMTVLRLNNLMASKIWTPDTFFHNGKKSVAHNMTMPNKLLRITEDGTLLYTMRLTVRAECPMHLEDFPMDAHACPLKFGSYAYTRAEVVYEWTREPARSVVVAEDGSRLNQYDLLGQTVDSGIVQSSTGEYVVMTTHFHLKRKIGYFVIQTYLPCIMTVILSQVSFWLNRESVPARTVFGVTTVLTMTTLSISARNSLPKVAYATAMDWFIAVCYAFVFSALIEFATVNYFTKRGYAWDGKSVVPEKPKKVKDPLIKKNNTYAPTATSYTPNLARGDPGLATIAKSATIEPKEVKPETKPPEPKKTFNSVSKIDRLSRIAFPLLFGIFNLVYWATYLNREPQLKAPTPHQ

[11] = target: Sodium/nucleoside cotransporter 1 (Homo sapiens) (UniProt O00337); test: Selectivity interaction (Eurofins-Panlabs Screen) EUB0001548a SLC28A1; conditions: at 10 µM
[12] = target: T1, Mitotic checkpoint serine/threonine-protein kinase BUB1; test: Selectivity interaction (Kinase panel (literature)) EUB0001549a BUB1
[13] = target: T4, 4-aminobutyrate aminotransferase, mitochondrial (Homo sapiens, UniProt P80404); test: (§1) Selectivity interaction (GPCR panel (PDSP screen)) EUB0001492b ABAT; conditions: at 10 µM
T4 sequence (P80404 whole entry): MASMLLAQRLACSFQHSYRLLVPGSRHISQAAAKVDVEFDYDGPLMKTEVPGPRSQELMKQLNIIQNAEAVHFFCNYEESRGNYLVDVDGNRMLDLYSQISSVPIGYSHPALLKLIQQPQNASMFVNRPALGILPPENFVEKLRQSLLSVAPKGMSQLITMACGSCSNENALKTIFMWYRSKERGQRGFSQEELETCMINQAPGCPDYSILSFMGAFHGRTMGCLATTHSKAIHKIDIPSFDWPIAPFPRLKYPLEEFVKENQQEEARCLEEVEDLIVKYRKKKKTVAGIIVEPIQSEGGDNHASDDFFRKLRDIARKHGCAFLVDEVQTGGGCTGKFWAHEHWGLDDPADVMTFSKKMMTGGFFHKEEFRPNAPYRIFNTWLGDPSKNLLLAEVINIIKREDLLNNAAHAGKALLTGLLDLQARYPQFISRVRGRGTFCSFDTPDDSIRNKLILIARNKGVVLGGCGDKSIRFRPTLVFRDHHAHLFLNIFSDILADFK

[14] = target: T4, 4-aminobutyrate aminotransferase, mitochondrial; test: as §1
[15] = target: T5, Alpha-2C adrenergic receptor (Homo sapiens) (UniProt P18825); test: Selectivity interaction (GPCR panel (PDSP screen)) EUB0001492b ADRA2C; conditions: at 10 µM
T5 sequence (whole entry): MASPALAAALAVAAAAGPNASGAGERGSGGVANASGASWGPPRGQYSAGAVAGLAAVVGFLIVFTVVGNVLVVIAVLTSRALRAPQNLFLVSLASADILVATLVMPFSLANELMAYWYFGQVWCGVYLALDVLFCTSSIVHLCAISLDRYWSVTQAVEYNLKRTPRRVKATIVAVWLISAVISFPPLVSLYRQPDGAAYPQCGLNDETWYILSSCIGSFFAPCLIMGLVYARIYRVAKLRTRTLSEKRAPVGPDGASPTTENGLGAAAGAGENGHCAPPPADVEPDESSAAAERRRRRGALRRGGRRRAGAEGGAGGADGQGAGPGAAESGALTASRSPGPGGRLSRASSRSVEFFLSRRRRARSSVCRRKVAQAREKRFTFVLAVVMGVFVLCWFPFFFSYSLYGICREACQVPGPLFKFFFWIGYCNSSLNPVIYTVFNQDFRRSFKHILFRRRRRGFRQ

[16] = target: 5-hydroxytryptamine receptor 1D (Homo sapiens) (UniProt P28221); test: Selectivity interaction (GPCR panel (PDSP screen)) EUB0001492b HTR1D; conditions: at 10 µM
[17] = target: Muscarinic acetylcholine receptor M3 (Homo sapiens, UniProt P20309); test: Selectivity interaction (GPCR panel (PDSP screen)) EUB0001492b CHRM3; conditions: at 10 µM
[18] = target: Interleukin-1 receptor-associated kinase 3 (Homo sapiens, UniProt Q9Y616); test: Selectivity interaction (NanoBRET assay (in HEK293T cells)) EUB0001492b IRAK3; type: cell-based, HEK-293T
[19] = target: T6, Alpha-1A adrenergic receptor (Homo sapiens) (UniProt P35348); test: Selectivity interaction (GPCR panel (PDSP screen)) EUB0001492b ADRA1A; conditions: at 10 µM
T6 sequence (whole entry): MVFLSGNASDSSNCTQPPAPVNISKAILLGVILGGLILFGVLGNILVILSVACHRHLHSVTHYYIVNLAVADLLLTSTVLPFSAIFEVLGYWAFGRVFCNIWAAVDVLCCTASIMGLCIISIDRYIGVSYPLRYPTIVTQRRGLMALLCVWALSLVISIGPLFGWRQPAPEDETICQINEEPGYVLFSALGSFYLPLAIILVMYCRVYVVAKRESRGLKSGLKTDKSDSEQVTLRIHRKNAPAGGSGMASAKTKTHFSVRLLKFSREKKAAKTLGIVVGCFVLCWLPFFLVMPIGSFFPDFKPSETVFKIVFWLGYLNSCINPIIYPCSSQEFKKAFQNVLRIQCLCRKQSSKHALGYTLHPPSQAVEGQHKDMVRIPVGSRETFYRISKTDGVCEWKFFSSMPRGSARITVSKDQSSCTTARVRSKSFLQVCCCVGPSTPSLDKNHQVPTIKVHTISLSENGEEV

[20] = target: Cyclin-G-associated kinase (Homo sapiens, UniProt O14976); test: Selectivity interaction (Kinase panel (enzymatic assay, literature)) EUB0001492b GAK
Cyclin-G-associated kinase, sequence (O14976 whole entry): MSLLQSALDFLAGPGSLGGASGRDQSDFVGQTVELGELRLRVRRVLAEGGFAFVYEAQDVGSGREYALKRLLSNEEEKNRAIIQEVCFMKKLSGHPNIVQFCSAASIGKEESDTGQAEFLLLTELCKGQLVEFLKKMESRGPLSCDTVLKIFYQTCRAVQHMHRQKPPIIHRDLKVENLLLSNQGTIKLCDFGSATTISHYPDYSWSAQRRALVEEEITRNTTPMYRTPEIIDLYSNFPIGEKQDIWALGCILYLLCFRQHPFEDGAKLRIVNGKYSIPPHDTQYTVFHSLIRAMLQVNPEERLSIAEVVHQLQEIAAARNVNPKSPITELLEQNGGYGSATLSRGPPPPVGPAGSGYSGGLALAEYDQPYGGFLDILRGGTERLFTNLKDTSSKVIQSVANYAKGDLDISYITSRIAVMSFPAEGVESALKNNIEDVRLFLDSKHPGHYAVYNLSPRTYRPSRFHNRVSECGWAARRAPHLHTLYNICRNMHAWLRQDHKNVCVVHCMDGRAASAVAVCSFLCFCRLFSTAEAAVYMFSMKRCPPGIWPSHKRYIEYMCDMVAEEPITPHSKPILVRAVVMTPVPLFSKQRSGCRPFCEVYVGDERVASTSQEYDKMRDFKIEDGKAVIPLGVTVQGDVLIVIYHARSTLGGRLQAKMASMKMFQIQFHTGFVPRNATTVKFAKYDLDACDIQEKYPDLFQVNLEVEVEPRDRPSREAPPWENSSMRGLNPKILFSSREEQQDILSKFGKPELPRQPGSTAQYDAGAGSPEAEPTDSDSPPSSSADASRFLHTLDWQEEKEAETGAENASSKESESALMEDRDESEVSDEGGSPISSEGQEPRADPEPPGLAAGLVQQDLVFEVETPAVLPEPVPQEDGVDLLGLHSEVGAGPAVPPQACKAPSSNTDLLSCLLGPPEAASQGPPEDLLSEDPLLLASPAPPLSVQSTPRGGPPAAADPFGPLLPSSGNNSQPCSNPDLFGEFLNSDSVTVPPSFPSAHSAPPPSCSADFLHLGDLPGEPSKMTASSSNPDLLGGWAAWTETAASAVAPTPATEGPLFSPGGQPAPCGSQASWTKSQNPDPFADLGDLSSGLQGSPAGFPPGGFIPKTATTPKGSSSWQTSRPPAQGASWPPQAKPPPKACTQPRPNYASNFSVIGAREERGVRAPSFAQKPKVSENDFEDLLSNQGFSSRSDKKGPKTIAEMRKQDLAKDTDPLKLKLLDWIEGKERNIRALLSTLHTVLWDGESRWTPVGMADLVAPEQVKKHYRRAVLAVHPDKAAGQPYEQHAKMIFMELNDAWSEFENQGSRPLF

[21] = target: D(4) dopamine receptor (Homo sapiens) (UniProt P21917); test: Selectivity interaction (GPCR panel (PDSP screen)) EUB0001492b DRD4; conditions: at 10 µM
[22] = target: Beta-3 adrenergic receptor (Homo sapiens) (UniProt P13945); test: Selectivity interaction (GPCR panel (PDSP screen)) EUB0001492b ADRB3; conditions: at 10 µM
D(3) dopamine receptor = D(3) dopamine receptor (Homo sapiens, UniProt P35462); test: Selectivity interaction (GPCR panel (PDSP screen)) EUB0001492b DRD3; conditions: at 10 µM
[23] = target: T3, Gamma-aminobutyric acid receptor subunit alpha-1 (Homo sapiens); test: Selectivity interaction (GPCR panel (PDSP screen)) EUB0001492b GABRA1; conditions: at 10 µM
[24] = target: T7, 5-hydroxytryptamine receptor 1A (Homo sapiens) (UniProt P08908); test: Selectivity interaction (GPCR panel (PDSP screen)) EUB0001492b HTR1A; conditions: at 10 µM
T7 sequence (whole entry): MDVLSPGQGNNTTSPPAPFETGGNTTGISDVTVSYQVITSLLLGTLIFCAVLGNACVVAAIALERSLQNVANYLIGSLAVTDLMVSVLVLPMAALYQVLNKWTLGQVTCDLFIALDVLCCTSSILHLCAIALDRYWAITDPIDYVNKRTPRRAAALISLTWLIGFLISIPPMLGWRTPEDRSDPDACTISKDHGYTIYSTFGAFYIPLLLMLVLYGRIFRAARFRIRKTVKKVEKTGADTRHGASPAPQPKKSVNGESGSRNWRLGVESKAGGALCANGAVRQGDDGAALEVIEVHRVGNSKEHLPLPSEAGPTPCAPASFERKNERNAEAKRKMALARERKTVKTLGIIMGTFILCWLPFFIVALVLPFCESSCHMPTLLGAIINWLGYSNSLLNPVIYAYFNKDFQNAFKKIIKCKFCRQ

[25] = target: AP2-associated protein kinase 1 (Homo sapiens, UniProt Q2M2I8); test: Selectivity interaction (Kinase panel (enzymatic assay, literature)) EUB0001492b AAK1
[26] = target: 5-hydroxytryptamine receptor 7 (Homo sapiens) (UniProt P34969); test: Selectivity interaction (GPCR panel (PDSP screen)) EUB0001492b HTR7; conditions: at 10 µM
D(2) dopamine receptor = D(2) dopamine receptor (Homo sapiens, UniProt P14416); test: Selectivity interaction (GPCR panel (PDSP screen)) EUB0001492b DRD2; conditions: at 10 µM
D(2) dopamine receptor, sequence (P14416 whole entry): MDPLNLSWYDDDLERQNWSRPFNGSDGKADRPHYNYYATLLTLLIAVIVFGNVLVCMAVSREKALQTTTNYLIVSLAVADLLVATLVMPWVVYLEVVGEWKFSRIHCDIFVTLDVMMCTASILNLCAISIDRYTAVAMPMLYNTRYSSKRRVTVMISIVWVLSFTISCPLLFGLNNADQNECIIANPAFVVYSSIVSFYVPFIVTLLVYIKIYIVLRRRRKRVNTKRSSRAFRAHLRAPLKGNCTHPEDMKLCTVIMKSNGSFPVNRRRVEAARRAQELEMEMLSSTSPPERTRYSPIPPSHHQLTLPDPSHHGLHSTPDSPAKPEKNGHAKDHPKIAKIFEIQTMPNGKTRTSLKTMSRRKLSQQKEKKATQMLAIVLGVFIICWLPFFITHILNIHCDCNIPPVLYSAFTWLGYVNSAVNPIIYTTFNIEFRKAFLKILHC

[27] = target: Alpha-1D adrenergic receptor (Homo sapiens) (UniProt P25100); test: Selectivity interaction (GPCR panel (PDSP screen)) EUB0001492b ADRA1D; conditions: at 10 µM
D(1A) dopamine receptor = D(1A) dopamine receptor (Homo sapiens, UniProt P21728); test: Selectivity interaction (GPCR panel (PDSP screen)) EUB0001492b DRD1; conditions: at 10 µM
[28] = target: Calcium/calmodulin-dependent protein kinase type IV (Homo sapiens, UniProt Q16566); test: Selectivity interaction (KinomeScan (DiscoverX, competition-binding assay)) EUB0001547a CAMK4
Calcium/calmodulin-dependent protein kinase type IV, sequence (Q16566 whole entry): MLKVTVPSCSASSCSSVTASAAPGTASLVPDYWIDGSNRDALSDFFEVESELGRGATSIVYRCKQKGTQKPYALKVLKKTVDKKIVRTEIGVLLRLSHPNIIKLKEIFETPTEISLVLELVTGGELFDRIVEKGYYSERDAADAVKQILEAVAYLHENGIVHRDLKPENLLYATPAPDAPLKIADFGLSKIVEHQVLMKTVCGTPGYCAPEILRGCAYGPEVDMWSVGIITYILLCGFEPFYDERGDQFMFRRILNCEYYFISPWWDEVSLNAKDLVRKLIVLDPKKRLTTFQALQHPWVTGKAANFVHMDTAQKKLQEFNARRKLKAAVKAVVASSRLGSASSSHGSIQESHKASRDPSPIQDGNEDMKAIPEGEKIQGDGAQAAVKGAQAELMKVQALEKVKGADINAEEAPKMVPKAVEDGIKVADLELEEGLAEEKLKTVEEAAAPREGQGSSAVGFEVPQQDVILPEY

[29] = target: Serine/threonine-protein kinase 17B (Homo sapiens, UniProt O94768); test: Selectivity interaction (KinomeScan (competition-binding assay, DiscoverX)) EUB0001547a STK17B
[30] = target: Cyclin-dependent kinase 7 (Homo sapiens, UniProt P50613); test: Selectivity interaction (KinomeScan (DiscoverX, competition-binding assay)) EUB0001547a CDK7
[31] = target: Death-associated protein kinase 1 (Homo sapiens, UniProt P53355); test: Selectivity interaction (KinomeScan (DiscoverX, competition-binding assay)) EUB0001547a DAPK1
[32] = target: Homeodomain-interacting protein kinase 3 (Homo sapiens, UniProt Q9H422); test: Selectivity interaction (KinomeScan (DiscoverX, competition-binding assay)) EUB0001547a HIPK3
[33] = target: Mitogen-activated protein kinase 15 (Homo sapiens, UniProt Q8TD08); test: Selectivity interaction (KinomeScan (DiscoverX, competition binding assay)) EUB0001547a MAPK15
[34] = target: RAC-gamma serine/threonine-protein kinase (Homo sapiens, UniProt Q9Y243); test: Selectivity interaction (NanoBRET assay (HEK293T cells)) EUB0001563a AKT3; type: cell-based; conditions: hek-293t

T1 sequence (O43683 whole entry): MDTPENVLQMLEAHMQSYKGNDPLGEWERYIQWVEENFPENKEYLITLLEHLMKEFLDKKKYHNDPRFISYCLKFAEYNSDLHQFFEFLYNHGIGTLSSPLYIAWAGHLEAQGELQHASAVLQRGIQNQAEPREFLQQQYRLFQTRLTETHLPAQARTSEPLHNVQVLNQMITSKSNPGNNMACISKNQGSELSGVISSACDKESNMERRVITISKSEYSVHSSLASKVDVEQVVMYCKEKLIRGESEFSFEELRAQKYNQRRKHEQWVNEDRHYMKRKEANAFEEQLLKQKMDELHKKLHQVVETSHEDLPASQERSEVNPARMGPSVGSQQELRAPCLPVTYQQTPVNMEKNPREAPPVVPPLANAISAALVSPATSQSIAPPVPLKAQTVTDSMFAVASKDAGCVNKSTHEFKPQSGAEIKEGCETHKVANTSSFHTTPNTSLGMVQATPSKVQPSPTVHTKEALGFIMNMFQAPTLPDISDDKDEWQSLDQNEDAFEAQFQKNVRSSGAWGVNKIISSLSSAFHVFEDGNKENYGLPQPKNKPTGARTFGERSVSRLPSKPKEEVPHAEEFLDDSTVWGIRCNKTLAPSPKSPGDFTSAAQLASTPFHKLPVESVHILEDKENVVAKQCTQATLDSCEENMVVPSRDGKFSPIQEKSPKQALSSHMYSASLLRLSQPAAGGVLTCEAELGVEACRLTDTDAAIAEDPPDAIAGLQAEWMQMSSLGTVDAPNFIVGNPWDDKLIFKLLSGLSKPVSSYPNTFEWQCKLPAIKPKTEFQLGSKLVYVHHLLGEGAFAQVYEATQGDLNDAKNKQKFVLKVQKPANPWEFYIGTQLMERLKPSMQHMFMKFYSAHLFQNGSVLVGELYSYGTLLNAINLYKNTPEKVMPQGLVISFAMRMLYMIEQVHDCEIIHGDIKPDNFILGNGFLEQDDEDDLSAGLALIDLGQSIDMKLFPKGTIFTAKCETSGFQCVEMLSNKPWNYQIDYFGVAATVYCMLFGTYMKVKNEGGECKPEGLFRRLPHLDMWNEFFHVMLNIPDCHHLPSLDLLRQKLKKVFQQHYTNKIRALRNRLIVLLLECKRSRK

Compound: COc1cnccc1Nc1nc(-c2nn(Cc3c(F)cc(OCCO)cc3F)c3ccccc23)ncc1OC
- IC50 [1]: 0.0043 µM
- % of inhibition (Adenosine receptor A2a): 67%
- IC50 [2]: 0.37 µM
- Kd [3]: > 30 µM
- % of inhibition [4]: 53%
- % of control [5]: 6.7%
- % of inhibition [6]: 52%
- IC50 [7]: 0.0033 µM
- % of control [8]: 0.6%
- % of inhibition [9]: 54%
- % of inhibition [10]: 60%
- % of inhibition [11]: 71%

Compound: COc1ccccc1Nc1nc(-c2nn(Cc3c(F)cc(OCCCO)cc3F)c3ccccc23)ncc1OC
- IC50 [12]: > 20 µM

Compound: CCC(F)(F)c1cc(N2CCC(S(C)(=O)=O)CC2)nc2sc(C(N)=O)c(N)c12 [BI-605906]
- % of inhibition [13]: 51.8%
- Ki [14]: 2.62 µM
- % of inhibition [15]: 13.7%
- % of inhibition [16]: 26.9%
- % of inhibition [17]: 21.1%
- IC50 [18]: > 20 µM
- % of inhibition [19]: 18.9%
- IC50 [20]: 0.272 µM
- % of inhibition [21]: 44.6%
- % of inhibition [22]: 18%
- % of inhibition (D(3) dopamine receptor): 51.5%
- % of inhibition [23]: 34.5%
- % of inhibition [24]: 14.4%
- IC50 [25]: 0.188 µM
- % of inhibition [26]: 13.7%
- % of inhibition (D(2) dopamine receptor): 69.8%
- % of inhibition [27]: 36.7%
- % of inhibition (D(1A) dopamine receptor): 25.7%

Compound: N[C@@H]1CCCN(c2c(/C=C3\SC(=O)NC3=O)cccc2-c2ccccc2)C1
- Kd [28]: 0.36 µM
- Kd [29]: 0.93 µM
- Kd [30]: 0.038 µM
- Kd [31]: 0.42 µM
- Kd [32]: 0.48 µM
- Kd [33]: 0.005 µM

Compound: C=CC(=O)Nc1ccc2[nH]c(=O)n(C3CCN(Cc4ccc(-c5ccc6c(c5)NC(=O)CO6)cc4)CC3)c2c1 [RL2578]
- IC50 [34]: 18 µM
